Laboratory results published in ChEMBL document CHEMBL1145280, “Control of hepatitis C: a medicinal chemistry perspective” (J Med Chem, 2005).
pIC50: −log10 of the molar value. Positions of bridges follow the written chain, without caps; N, C: chain ends. Non-standard residues stand in square brackets, D forms with d. Residues, ends and D or L forms follow the SMILES beside them. Chains are numbered I, II in the order given. Ahx = NCCCCCC(=O)O

Legend:
[1] = target: Genome polyprotein (Hepatitis C virus genotype 1a (isolate 1) (HCV), UniProt P26664); experiment: Inhibitory concentration against hepatitis C virus NS2/3 protease; parameters: species or system Hepacivirus hominis
Sequence of Genome polyprotein (P26664 810-1026 limits assumed): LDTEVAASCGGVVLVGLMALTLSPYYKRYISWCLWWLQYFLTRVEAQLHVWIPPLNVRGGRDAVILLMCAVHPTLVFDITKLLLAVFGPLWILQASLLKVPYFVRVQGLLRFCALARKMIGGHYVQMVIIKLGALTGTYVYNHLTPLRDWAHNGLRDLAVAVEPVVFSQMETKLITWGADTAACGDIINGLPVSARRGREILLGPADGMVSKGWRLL
Sequence of Genome polyprotein (P26664 1027-1657 limits assumed): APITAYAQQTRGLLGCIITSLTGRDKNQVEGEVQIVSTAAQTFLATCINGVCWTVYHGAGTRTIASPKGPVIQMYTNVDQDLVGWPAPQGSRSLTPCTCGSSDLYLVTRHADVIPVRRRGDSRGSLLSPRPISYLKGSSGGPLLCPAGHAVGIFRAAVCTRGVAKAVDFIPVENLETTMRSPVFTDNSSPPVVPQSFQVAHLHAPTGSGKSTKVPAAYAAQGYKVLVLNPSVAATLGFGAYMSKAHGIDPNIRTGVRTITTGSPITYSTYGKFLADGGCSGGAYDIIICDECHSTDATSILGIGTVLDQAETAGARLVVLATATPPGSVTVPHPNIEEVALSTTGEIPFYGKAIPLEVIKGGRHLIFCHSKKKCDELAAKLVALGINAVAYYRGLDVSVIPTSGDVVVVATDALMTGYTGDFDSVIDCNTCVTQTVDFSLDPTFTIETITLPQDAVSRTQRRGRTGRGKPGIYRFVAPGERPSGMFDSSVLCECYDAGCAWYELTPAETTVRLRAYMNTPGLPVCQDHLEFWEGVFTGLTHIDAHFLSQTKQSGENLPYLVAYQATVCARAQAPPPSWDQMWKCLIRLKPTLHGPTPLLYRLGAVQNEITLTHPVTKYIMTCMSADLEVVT

[2] = target: NS3 (Hepatitis C virus) (UniProt A3EZJ3); experiment: Percent inhibition against hepatitis C virus helicase at 25 ug/mL; Range 6-13; conditions: Hepacivirus hominis
Sequence of NS3 (Hepatitis C virus) (A3EZJ3 as listed by the source): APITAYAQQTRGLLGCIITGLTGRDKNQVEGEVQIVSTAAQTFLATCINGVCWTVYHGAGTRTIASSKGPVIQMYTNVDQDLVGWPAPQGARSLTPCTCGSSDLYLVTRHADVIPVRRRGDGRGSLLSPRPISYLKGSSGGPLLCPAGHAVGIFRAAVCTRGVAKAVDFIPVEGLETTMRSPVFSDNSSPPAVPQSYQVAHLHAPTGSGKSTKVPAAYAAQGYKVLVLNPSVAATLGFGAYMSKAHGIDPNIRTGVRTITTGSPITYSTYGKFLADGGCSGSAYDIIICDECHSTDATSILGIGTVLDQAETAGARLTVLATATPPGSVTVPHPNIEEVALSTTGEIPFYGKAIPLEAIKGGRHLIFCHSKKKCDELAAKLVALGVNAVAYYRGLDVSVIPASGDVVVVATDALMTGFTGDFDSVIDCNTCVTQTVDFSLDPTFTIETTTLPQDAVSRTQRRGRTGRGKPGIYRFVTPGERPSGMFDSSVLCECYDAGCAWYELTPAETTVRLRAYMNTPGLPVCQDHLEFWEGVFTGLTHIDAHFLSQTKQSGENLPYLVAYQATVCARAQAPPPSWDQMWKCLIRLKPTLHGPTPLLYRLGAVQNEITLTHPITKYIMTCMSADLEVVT

[3] = target: T1, Hepatitis C virus NS4A protein (Hepatitis C virus, UniProt D2K2A8); experiment: Inhibitory concentration against hepatitis C virus NS4A active site; parameters: species or system Hepacivirus hominis
T1 sequence (D2K2A8 whole entry): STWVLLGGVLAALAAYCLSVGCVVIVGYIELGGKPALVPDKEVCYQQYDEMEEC

[4] = target: T1, Hepatitis C virus NS4A protein; experiment: Inhibitory concentration against hepatitis C NS4A protease; parameters: species or system Hepacivirus hominis
[5] = target: T2, NS3 (Hepatitis C virus, UniProt A3EZJ3); experiment: Inhibitory concentration against hepatitis C virus NS4A binding region of NS3 protease; parameters: species or system Hepacivirus hominis
T2 sequence (A3EZJ3 whole entry): as the sequence (A3EZJ3 as listed by the source) above

[6] = target: T2, NS3; experiment: Inhibitory concentration against hepatitis C virus helicase; range 0.6-0.7; parameters: species or system Hepacivirus hominis

H-KGSVVIVGRIILSGRK-OH showed a pIC50 [1] of 5.24.

With O=C(CCCCC(=O)Nc1nc2ccccc2[nH]1)Nc1nc2ccccc2[nH]1 the inhibition [2] was 13%.

With H-SLVIRGVIV-OH the pIC50 [3] was 6.22.

Compound H-CVVIVGRIVLSGK-OH has a pIC50 [4] of 6.70.

In the case of CC[C@H](C)[C@@H](NC(=O)[C@H](NC(=O)[C@@H](CC(C)C)NC(=O)[C@@H](CO)NC(=O)CNC(=O)[C@H](CCCCN)NC(=O)CCCCCNC(=O)CCCCCNC(=O)[C@H](CS)NC(=O)[C@H](CS)NC(=O)[C@@H](NC(=O)[C@@H](NC(=O)[C@H](CC(=O)O)NC(=O)[C@@H](N)CCC(=O)O)C(C)C)C(C)C)C(C)C)C(=O)N[C@H](CCCN=C(N)N)C(=O)NCC(=O)N[C@@H](C(=O)N[C@@H](C(=O)N[C@@H](C(=O)N[C@@H](C(=O)N[C@H](CS)C(=O)O)C(C)C)C(C)C)[C@@H](C)CC)C(C)C, the pIC50 [5] was 6.70.

For Ac-RGGSVVIVGRIILSGRK-OH, the pIC50 [1] was 5.47.

CC[C@H](C)[C@H](NC(=O)CNC(=O)[C@H](CCCN=C(N)N)NC(=O)[C@@H](NC(=O)[C@@H](NC(=O)[C@H](CC(C)C)NC(=O)[C@H](CO)NC(=O)CNC(=O)[C@H](CCCCN)NC(=O)CCCCCNC(=O)[C@H](CS)NC(=O)[C@H](CS)NC(=O)[C@@H](NC(=O)[C@@H](NC(=O)[C@H](CCC(=O)O)NC(=O)[C@@H](N)CC(=O)O)C(C)C)C(C)C)C(C)C)[C@@H](C)CC)C(=O)N[C@H](C(=O)N[C@H](C(=O)N[C@@H](CS)C(=O)N[C@@H](CCCCN)C(=O)O)C(C)C)C(C)C (H-DEVVCC[Ahx]KGSLVIRGIVVCK-OH) was tested, and the pIC50 [5] was 6.70.

CN1CCN(CCCN2c3ccccc3Sc3ccc(C(F)(F)F)cc32)CC1 [TRIFLUOPERAZINE] showed a pIC50 [6] of 6.15.

CC[C@H](C)[C@H](NC(=O)[C@H](CCCN=C(N)N)NC(=O)CNC(=O)[C@@H](NC(=O)[C@@H](NC(=O)[C@@H](NC(=O)[C@@H](NC(=O)[C@@H](N)CS)C(C)C)C(C)C)[C@@H](C)CC)C(C)C)C(=O)N[C@H](C(=O)N[C@@H](CC(C)C)C(=O)N[C@@H](CO)C(=O)NCC(=O)N[C@@H](CCCCN)C(=O)NCCCC[C@H](NC(=O)CCCCCNC(=O)[C@H](CS)NC(=O)[C@H](CS)NC(=O)[C@@H](NC(=O)[C@@H](NC(=O)[C@H](CC(=O)O)NC(=O)[C@@H](N)CCC(=O)O)C(C)C)C(C)C)C(=O)O)C(C)C (I: H-CVVIVGRIVLSGK / II: H-EDVVCC[Ahx]K-OH; amide I:C-II:8) was tested, and the pIC50 [5] was 5.52.

With H-KGSLVIRGVIVVCK-OH the pIC50 [3] was 6.70.
